Patent US12486278B2, “MASP-2 inhibitors and methods of use” (Omeros Corporation, priority 2019, dated 2025)
Where a name gives a salt, the structure may show the parent alone.

molecular target: T1, MASP-2 (CCP1-CCP2-SP) (Homo sapiens, UniProt O00187); test: Enzymatic Assay for MASP-2 (fluorogenic substrate); type: biochemical; details: fluorogenic substrate based on C2 cleavage site; room temperature, 20 min; 20 mM HEPES pH 7.4, 140 mM NaCl, 0.1% Tween 20
T1 construct: 15 μL of Enzyme MASP-2 (CCP1-CCP2-SP) in Assay Buffer
Method: The MASP-2 assay utilizes a fluorogenic substrate, based on the cleavage site for its natural substrate C2. The assay is run at room temperature in an assay buffer containing 20 mM HEPES, pH 7.4, 140 mM NaCl and 0.1% Tween 20. Assay parameters are adjusted such that the assay is linear with respect to time, enzyme, and substrate concentrations. Under these optimized assays conditions, IC50 values are equivalent to Ki values, except in a few cases of “tight binding” inhibitors. Cases of “tight binding” or possible “slow binding” inhibitors are handled by the methods described in Copeland R. A. (2013) Evaluation of Enzyme Inhibitors in Drug Discovery. 2nd Ed., John Wiley and Sons, Inc., Chapters 5-7.
The MASP-2 assay protocol is carried out as follows. Test compounds are serially diluted in DMSO and then 100 nL of each dilution is transferred to the assay plate(s). 10 μL of Assay Buffer is added, followed by 15 μL of Enzyme MASP-2 (CCP1-CCP2-SP) in Assay Buffer. 15 μL of Substrate in Assay Buffer is then added and mixed to start the reactions. After 20 min at room temperature, 15 μL of a stop solution (0.1 M acetic acid) is added, mixed and the plates are read on a SpectraMax i3x Microplate Reader and exported as Excel files. Each assay plate included a “no inhibitor” (DMSO Only) control, a “no enzyme” control and a reference inhibitor control. % Activity values=100*(average test comp. fluorescence−average “no enzyme” fluorescence)/(average “DMSO only” fluorescence−average “no enzyme” fluorescence). IC50 and Ki values are very reproducible, falling well within ±2-fold.

T1 sequence (O00187 445-686 limits assumed): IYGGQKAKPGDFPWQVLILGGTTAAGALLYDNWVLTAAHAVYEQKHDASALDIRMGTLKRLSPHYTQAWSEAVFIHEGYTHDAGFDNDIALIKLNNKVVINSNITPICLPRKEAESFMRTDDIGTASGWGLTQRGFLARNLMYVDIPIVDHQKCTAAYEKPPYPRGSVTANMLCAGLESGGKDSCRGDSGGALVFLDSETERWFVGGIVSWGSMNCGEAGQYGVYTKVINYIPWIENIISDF
T1 sequence (O00187 298-444 partner limits assumed): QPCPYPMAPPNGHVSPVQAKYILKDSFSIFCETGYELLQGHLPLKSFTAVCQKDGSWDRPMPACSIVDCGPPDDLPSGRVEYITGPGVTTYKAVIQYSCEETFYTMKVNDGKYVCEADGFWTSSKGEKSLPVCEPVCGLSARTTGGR

| SMILES | Ki |
| --- | --- |
| C[C@H](NC(=O)[C@H]1C[C@H](Cc2ccc(F)c(Cl)c2)CN1)C(=O)NCc1cc2cnccc2[nH]1 [Compound I-2, (2R,4S)—N—((S)-1-(((1H-Pyrrolo[3,2-C]Pyridin-2-Yl)Methyl)Amino)-1-Oxopropan-2-Yl)-4-(3-Chloro-4-Fluorobenzyl)Pyrrolidine-2-Carboxamide Di-Trifluoroacetate] | < 500 nM |
| Cc1nc(N)ccc1CNC(=O)[C@H]1CC(F)(F)CN1C(=O)[C@@H]1C[C@@H](Cc2ccc(Br)cc2)CN1 [Compound I-61, (R)—N-((6-Amino-2-Methylpyridin-3-Yl)Methyl)-1-((2S,4R)-4-(4-Bromobenzyl)Pyrrolidine-2-Carbonyl)-4,4-Difluoropyrrolidine-2-Carboxamide Dihydrochloride] | < 500 nM |
| C[C@H](NC(=O)[C@H]1C[C@@H](c2ccccc2)CCN1)C(=O)NCc1cc2c(s1)CNC2 [Compound I-98, (2R,4S)—N—((S)-1-(((5,6-Dihydro-4H-Thieno[2,3-C]Pyrrol-2-Yl)Methyl)Amino)-1-Oxopropan-2-Yl)-4-Phenylpiperidine-2-Carboxamide Di-Trifluoroacetate Salt] | < 500 nM |
| C[C@H](NC(=O)[C@H]1C[C@H](c2ccccc2)CN1)C(=O)NCc1nc2c(Cl)cccc2s1 [Compound I-4, (2R,4R)—N—((S)-1-(((4-Chlorobenzo[D]Thiazol-2-Yl)Methyl)Amino)-1-Oxopropan-2-Yl)-4-Phenylpyrrolidine-2-Carboxamide Trifluoroacetate] | 500 to 2500 nM |

The remaining lines, values ahead:

| Ki | SMILES |
| --- | --- |
| < 500 nM | C[C@H](NC(=O)[C@H]1C[C@H](c2ccccc2)CN1)C(=O)NCc1ccc(C(=N)N)cc1Cl [Compound I-24, (2R,4R)—N—((S)-1-((4-Carbamimidoyl-2-Chlorobenzyl)Amino)-1-Oxopropan-2-Yl)-4-Phenylpyrrolidine-2-Carboxamide Di-Trifluoroacetate] |
| < 500 nM | C[C@H](NC(=O)[C@H]1C[C@H](Oc2ccccc2)CN1)C(=O)NCc1cnc2c(c1)c(Cl)cn2C [Compound I-46, (2R,4S)—N—((S)-1-(((3-Chloro-1-Methyl-1H-Pyrrolo[2,3-B]Pyridin-5-Yl)Methyl)Amino)-1-Oxopropan-2-Yl)-4-Phenoxypyrrolidine-2-Carboxamide Trifluoroacetate] |
| < 500 nM | CC(NC(=O)[C@H]1C[C@@H](c2ccccc2)CCN1CC(=O)O)C(=O)NCc1cc2cnccc2[nH]1 (stereo in doubt) [Compound I-105, 2-((2R,4S)-2-(((S)-1-(((1H-pyrrolo[3,2-c]pyridin-2-yl)methyl)amino)-1-oxopropan-2-yl)carbamoyl)-4-phenylpiperidin-1-yl)acetic acid di-trifluoroacetate] |
| < 500 nM | C[C@H](NC(=O)[C@H]1C[C@H](Cc2cc(Cl)c(Cl)s2)CN1)C(=O)NCc1cnc2c(c1)c(Cl)cn2C [Compound I-20, Trifluoroacetate] |
| < 500 nM | Cc1nc(N)ccc1CNC(=O)[C@H](C)NC(=O)[C@H]1C[C@H](Cc2cc(Cl)c(Cl)s2)CN1 [Compound I-18, (2R,4R)—N—((S)-1-(((6-Amino-2-Methylpyridin-3-Yl)Methyl)Amino)-1-Oxopropan-2-Yl)-4-((4,5-Dichlorothiophen-2-Yl)Methyl)Pyrrolidine-2-Carboxamide Di-Trifluoroacetate] |
| < 500 nM | Cc1nc(N)ccc1CNC(=O)[C@@H]1CCN1C(=O)[C@H]1C[C@@H](c2cccc(-c3ccccc3)c2)CCN1 [Compound I-65, (S)-1-((2R,4S)-4-([1,1′-Biphenyl]-3-Yl)Piperidine-2-Carbonyl)-N-((6-Amino-2-Methylpyridin-3-Yl)Methyl)Azetidine-2-Carboxamide Di-Trifluoroacetate] |
| < 500 nM | C[C@H](NC(=O)[C@H]1C[C@@H](c2cccc(-c3ccccc3)c2)CCN1)C(=O)NCc1ccc(C(=N)N)cc1 [Compound I-68, (2R,4S)-4-([1,1′-Biphenyl]-3-Yl)-N—((S)-1-((4-Carbamimidoylbenzyl)Amino)-1-Oxopropan-2-Yl)Piperidine-2-Carboxamide Di-Trifluoroacetate] |
